Test results taken from PubChem BioAssay (NCI).
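A five-concentration, 48-hour dose response in 96-well plates underlies each endpoint, interpolated linearly between surrounding concentrations. The concentration for full growth arrest is given as TGI.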

How the values were obtained:
Test in all cases: NCI anticancer screen, dose series, 48 h
[1] = system: NCI-H226 lung
[2] = system: NCI-H460 lung
[3] = system: SF-539 CNS
[4] = system: K-562 leukemia
[5] = system: NCI-H23 lung
[6] = system: SK-MEL-28 melanoma
[7] = system: HL-60(TB) leukemia
[8] = system: M14 melanoma
[9] = system: HOP-62 NSCLC
[10] = system: SN12C renal
[11] = system: NCI-H522 lung
[12] = system: HT29 colon
[13] = system: ACHN renal
[14] = system: HOP-18 NSCLC
[15] = system: MOLT-4 leukemia
[16] = system: SW-620 colon
[17] = system: UO-31 renal
[18] = system: A549 NSCLC
[19] = system: CAKI-1 renal
[20] = system: HCT-116 colon
[21] = system: MALME-3M melanoma
[22] = system: OVCAR-3 ovarian
[23] = system: XF 498 CNS
[24] = system: OVCAR-5 ovarian
[25] = system: DLD-1 colon
[26] = system: SK-OV-3 ovarian
[27] = system: UACC-257 melanoma
[28] = system: COLO 205 colon
[29] = system: IGROV1 ovarian
[30] = system: HCC-2998 colon
[31] = system: SK-MEL-2 melanoma
[32] = system: HCT-15 colon
[33] = system: DMS 114 small cell lung
[34] = system: SF-268 CNS
[35] = system: SR leukemia
[36] = system: TK-10 renal
[37] = system: CCRF-CEM leukemia
[38] = system: OVCAR-8 ovarian
[39] = system: SNB-75 CNS
[40] = system: SK-MEL-5 melanoma
[41] = system: KM20L2 colon
[42] = system: SF-295 CNS
[43] = system: U251 CNS
[44] = system: UACC-62 melanoma
[45] = system: SNB-78 CNS
[46] = system: M19-MEL melanoma
[47] = system: LOX IMVI melanoma
[48] = system: RXF 393 renal
[49] = system: SNB-19 CNS
[50] = system: RXF-631 renal
[51] = system: RPMI-8226 leukemia
[52] = system: LXFL 529 NSCLC
[53] = system: 786-0 renal
[54] = system: OVCAR-4 ovarian
[55] = system: A498 renal
[56] = system: KM12 colon
[57] = system: EKVX NSCLC
[58] = system: HOP-92 NSCLC

CC1(C)CC(=O)C(C(=O)C(=O)NC2=C(Cl)C(=O)c3ccccc3C2=O)C(=O)C1
TGI [1]: > 100 µM
TGI [2]: > 100 µM
TGI [3]: > 100 µM
TGI [4]: > 100 µM
TGI [5]: > 100 µM
TGI [6]: > 100 µM
TGI [7]: 47.2 µM
TGI [8]: > 100 µM
TGI [9]: > 100 µM
TGI [10]: > 100 µM
TGI [11]: 91.6 µM
TGI [12]: > 100 µM
TGI [13]: > 100 µM
TGI [14]: > 100 µM
TGI [15]: 94.4 µM
TGI [16]: > 100 µM
TGI [17]: > 100 µM
TGI [18]: > 100 µM
TGI [19]: > 100 µM
TGI [20]: > 100 µM
TGI [21]: > 100 µM
TGI [22]: > 100 µM
TGI [23]: > 100 µM
TGI [24]: > 100 µM
TGI [25]: > 100 µM
TGI [26]: > 100 µM
TGI [27]: > 100 µM
TGI [28]: > 100 µM
TGI [29]: > 100 µM
TGI [30]: > 100 µM
TGI [31]: > 100 µM
TGI [32]: > 100 µM
TGI [33]: > 100 µM
TGI [34]: > 100 µM
TGI [35]: > 100 µM
TGI [36]: > 100 µM
TGI [37]: > 100 µM
TGI [38]: > 100 µM
TGI [39]: > 100 µM
TGI [40]: > 100 µM
TGI [41]: > 100 µM
TGI [42]: > 100 µM
TGI [43]: > 100 µM
TGI [44]: > 100 µM
TGI [45]: > 100 µM
TGI [46]: > 100 µM
TGI [47]: > 100 µM
TGI [48]: > 100 µM
TGI [49]: > 100 µM
TGI [50]: > 100 µM
TGI [51]: > 100 µM
TGI [52]: > 100 µM
TGI [53]: > 100 µM
TGI [54]: > 100 µM
TGI [55]: > 100 µM
TGI [56]: > 100 µM
TGI [57]: > 100 µM

COC(=O)C12C3C4C1C1C2C3C41C(=O)O (stereo not drawn)
TGI [1]: > 100 µM
TGI [2]: > 100 µM
TGI [3]: > 100 µM
TGI [4]: > 100 µM
TGI [5]: > 100 µM
TGI [6]: > 100 µM
TGI [7]: > 100 µM
TGI [8]: > 100 µM
TGI [9]: > 100 µM
TGI [10]: > 100 µM
TGI [12]: > 100 µM
TGI [13]: > 100 µM
TGI [14]: > 100 µM
TGI [15]: > 100 µM
TGI [16]: > 100 µM
TGI [17]: > 100 µM
TGI [18]: > 100 µM
TGI [19]: > 100 µM
TGI [21]: > 100 µM
TGI [22]: > 100 µM
TGI [23]: > 100 µM
TGI [24]: > 100 µM
TGI [25]: > 100 µM
TGI [26]: > 100 µM
TGI [27]: > 100 µM
TGI [28]: > 100 µM
TGI [29]: > 100 µM
TGI [30]: > 100 µM
TGI [32]: > 100 µM
TGI [58]: > 100 µM
TGI [33]: > 100 µM
TGI [34]: > 100 µM
TGI [36]: > 100 µM
TGI [37]: > 100 µM
TGI [38]: > 100 µM
TGI [40]: > 100 µM
TGI [41]: > 100 µM
TGI [42]: > 100 µM
TGI [43]: > 100 µM
TGI [44]: > 100 µM
TGI [45]: > 100 µM
TGI [46]: > 100 µM
TGI [48]: > 100 µM
TGI [49]: > 100 µM
TGI [50]: > 100 µM
TGI [51]: > 100 µM
TGI [52]: > 100 µM
TGI [53]: > 100 µM
TGI [54]: > 100 µM
TGI [55]: > 100 µM
TGI [57]: > 100 µM
